pIC50: −log10 of the molar value.
What was measured:
THP-1 cells = experiment: THP-1 cell assay: LPS-stimulated pSer78-Hsp27 ELISA; type: cell-based; conditions: Homo sapiens, PMA-differentiated THP-1 cells, compound 60 min before 20 ng/mL LPS for 30 min
Source text: Materials and Reagents for Measuring Activity in THP-1 Cells: • 1) THP-1 cells (Cell bank of Shanghai) • 2) PMA (Sigma, Cat.No. P1585) • 3) LPS (Sigma, Cat.No. L4516) • 4) 96-well tissue-culture treated plate (Grenier, Cat.No. 655180) • 5) FBS (Thermofisher, Cat.No. 10100147) • 6) Complete EDTA-free protease inhibitor Cocktail (Roche, Cat.No. 4693132001) • 7) PhosSTOP (Roche, Cat.No. 4906845001) • 8) Phosphor-Hsp27 (Ser78) Sandwich Elisa kit (CST, Cat.No. 7295)
Cell Assay Procedure: • 1) Day 0: THP-1 cells are seeded at 50K/well in complete media (1640+10% FBS+50 μM β-ME)+20 ng/mL PMA in 96-well plate • 2) Day 1: PMA containing media is removed after 24 h incubation (37° C./5% CO2), and replaced with complete growth media. Cells are incubated an additional 48 h to recover. • 3) Day 3: Cells are incubated with or without compounds at indicated concentrations for 60 min, prior to addition of 20 ng/mL LPS. Cells are stimulated for 30 min with LPS, washed 1× with ice cold PBS, lysed on ice in Lysis buffer provided in ELISA kit with Roche protease & phosphatase inhibitors. Extracts are clarified by refrigerated centrifugation & stored at −80° C. until pHsp27/total Hsp27 ELISAs • 4) Day 3 or Day 4: Cell Signaling Technology ELISA is run for pSer78-Hsp27 on lysates diluted to approximately 2.5 μg/well. • 5) The absorbance at 450 nm was read in a SpectraMax plus plate reader (Molecular Devices). Data was processed using GraphPad prism 8.0.

[1] = biological target: T1, MAPKAPK2 Recombinant Human Protein (Homo sapiens, UniProt P49137); experiment: MK2 kinase assay (Z'-LYTE kinase assay kit); conditions: inhibition of MK2 biochemical activity; 90 min incubation at room temperature
T1 construct: purchased ThermoFisher pv3317
T1 sequence (P49137 whole entry): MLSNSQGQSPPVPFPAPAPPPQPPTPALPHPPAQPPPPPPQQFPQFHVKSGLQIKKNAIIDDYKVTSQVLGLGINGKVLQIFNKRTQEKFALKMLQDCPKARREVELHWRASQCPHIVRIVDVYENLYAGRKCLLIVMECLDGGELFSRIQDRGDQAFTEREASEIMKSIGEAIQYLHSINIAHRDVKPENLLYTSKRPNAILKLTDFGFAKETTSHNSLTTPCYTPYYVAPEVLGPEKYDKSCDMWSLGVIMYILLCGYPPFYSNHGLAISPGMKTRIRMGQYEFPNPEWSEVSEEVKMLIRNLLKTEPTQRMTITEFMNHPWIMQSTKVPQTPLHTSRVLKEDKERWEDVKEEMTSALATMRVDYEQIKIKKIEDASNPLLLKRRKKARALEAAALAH
Summary of the method: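 Z'-LYTE FRET assay with recombinant human MAPKAPK2 and peptide substrate; compound and ATP added, kinase reaction 90 min at room temperature, then development 60 min before stop. Coumarin (445 nm) and fluorescein (520 nm) emissions read at 400 nm excitation.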

Row | Structure (SMILES) | pIC50 (THP-1 cells) | pIC50 [1]
1 | N#Cc1ccc(-c2cc3n(c2)Cc2cc(N4C[C@@H](CNC5(CO)CC5)CC4=O)ccc2-n2ccnc2-3)cc1 [Example 16] | 6.30 to 6.40 | 7.00 to 7.30
2 | C[C@H]1[C@@H](CN(C)C)OC(=O)N1c1ccc2c(c1)Cn1cc(-c3ccc(C#N)cc3)cc1-c1nccn1-2 [Example 61, 4-(7-((4S,5R)-5-((Dimethylamino)methyl)-4-methyl-2-oxooxazolidin-3-yl)-9H-benzo[e]imidazo[2,1-c]pyrrolo[1,2-a][1,4]diazepin-12-yl)benzonitrile] | 6.40 to 6.52 | 7.00 to 7.30
3 | CN(C)CC1CC12CCN(c1ccc3c(c1)Cn1cc(-c4ccc(C#N)cc4)cc1-c1nccn1-3)C2=O (centres unmarked) [Example 47, 4-(7-(1-((Dimethylamino)methyl)-4-oxo-5-azaspiro[2.4]heptan-5-yl)-9H-benzo[e]imidazo[2,1-c]pyrrolo[1,2-a][1,4]diazepin-12-yl)benzonitrile] | 6.70 to 7.00 | > 7.30
4 | CN(C)CCN1CCN(c2ccc3c(c2)Cn2cc(-c4ccc(C#N)cc4)cc2-c2nccn2-3)C1=O [Example 57, 4-(7-(3-(2-(Dimethylamino)ethyl)-2-oxoimidazolidin-1-yl)-9H-benzo[e]imidazo[2,1-c]pyrrolo[1,2-a][1,4]diazepin-12-yl)benzonitrile] | > 7.30 | > 7.30
5 | CN1CC(C)(CN2C(=O)CN(c3ccc4c(c3)Cn3cc(-c5ccc(C#N)cc5)cc3-c3nccn3-4)C2=O)C1 [Example 65, 4-(7-(3-((1,3-Dimethylazetidin-3-yl)methyl)-2,4-dioxoimidazolidin-1-yl)-9H-benzo[e]imidazo[2,1-c]pyrrolo[1,2-a][1,4]diazepin-12-yl)benzonitrile] | > 7.30 | > 7.30
6 | CN(C)CCN1C(=O)CN(c2ccc3c(c2)Cn2cc(-c4ccc(C#N)cc4)cc2-c2nccn2-3)C1=O [Example 75, 4-(7-(3-(2-(Dimethylamino)ethyl)-2,4-dioxoimidazolidin-1-yl)-9H-benzo[e]imidazo[2,1-c]pyrrolo[1,2-a][1,4]diazepin-12-yl)benzonitrile] | > 7.30 | > 7.30
7 | CN(CCO)C[C@H]1CC(=O)N(c2ccc3c(c2)Cn2cc(-c4ccc(F)cc4)cc2-c2nccn2-3)C1 [Example 89, (R)-1-(12-(4-Fluorophenyl)-9H-benzo[e]imidazo[2,1-c]pyrrolo[1,2-a][1,4]diazepin-7-yl)-4-(((2-hydroxyethyl)(methyl)amino)methyl)pyrrolidin-2-one] | 7.00 to 7.30 | 7.00 to 7.30
8 | CC(C)(N)[C@@H]1CN(c2ccc3c(c2)Cn2cc(-c4ccc(C#N)cc4)cc2-c2nccn2-3)C(=O)O1 (single isomer, unassigned) [Example 21] | > 7.30 | > 7.30
9 | CN(C)CC1CC(=O)N(c2cc3c(cc2F)-n2ccnc2-c2cc(-c4ccc(C#N)cc4)cn2C3)C1 (stereo in doubt) [Example 91] | 6.40 to 6.52 | 7.00 to 7.30
10 | N#Cc1ccc(-c2cc3n(c2)Cc2cc(N4CC(=O)N(CC5CNC5)C4=O)ccc2-n2ccnc2-3)cc1 [Example 66] | < 6.00 | > 7.30
11 | N#Cc1ccc(-c2cc3n(c2)Cc2cc(N4C[C@@H](CN)CC4=O)ccc2-n2ccnc2-3)cc1 [Example 8] | 6.40 to 6.52 | > 7.30
12 | N#Cc1ccc(-c2cc3n(c2)Cc2cc(N4CC5(CNC5)CC4=O)ccc2-n2ccnc2-3)cc1 [Example 22, 4-(7-(7-Oxo-2,6-diazaspiro[3.4]octan-6-yl)-9H-benzo[e]imidazo[2,1-c]pyrrolo [1,2-a][1,4]diazepin-12-yl)benzonitrile] | 5.82 to 6.00 | > 7.30
13 | CN(C)C[C@H]1CCN1C(=O)c1ccc2c(c1)Cn1cc(-c3ccc(C#N)cc3)cc1-c1nccn1-2 [Example 115] | 6.52 to 6.70 | > 7.30
14 | CC(C)N1CC(NC(=O)c2ccc3c(c2)Cn2cc(-c4ccc(C#N)cc4)cc2-c2nccn2-3)C1 [Example 128] | 6.00 to 6.30 | > 7.30
15 | CN(CCO)CC1CCN(c2ccc3c(c2)Cn2cc(-c4ccc(C#N)cc4)cc2-c2nccn2-3)C1=O (centres unmarked) [Example 37] | 7.00 to 7.30 | 7.00 to 7.30
16 | CN1CC2(CC(=O)N(c3ccc4c(c3)Cn3cc(-c5ccc(C#N)cc5)cc3-c3nccn3-4)C2)C1 [Example 23, 4-(7-(2-Methyl-7-oxo-2,6-diazaspiro[3.4]octan-6-yl)-9H-benzo[e]imidazo [2,1-c]pyrrolo[1,2-a][1,4]diazepin-12-yl)benzonitrile] | 6.52 to 6.70 | > 7.30
17 | CN(C)CCn1cnn(-c2ccc3c(c2)Cn2cc(-c4ccc(C#N)cc4)cc2-c2nccn2-3)c1=O [Example 79, 4-(7-(4-(2-(Dimethylamino)ethyl)-5-oxo-4,5-dihydro-1H-1,2,4-triazol-1-yl)-9H-benzo[e]imidazo[2,1-c]pyrrolo[1,2-a][1,4]diazepin-12-yl)benzonitrile] | 6.70 to 7.00 | 7.00 to 7.30
18 | CN1CC2(CCN(c3ccc4c(c3)Cn3cc(-c5ccc(C#N)cc5)cc3-c3nccn3-4)C2=O)C1 [Example 24, 4-(7-(2-Methyl-5-oxo-2,6-diazaspiro[3.4]octan-6-yl)-911-benzo[e]imidazo [2,1-c]pyrrolo[1,2-a][1,4]diazepin-12-yl)benzonitrile] | > 7.30 | > 7.30
19 | CN(C)C[C@H]1[C@@H]2CN(c3ccc4c(c3)Cn3cc(-c5ccc(C#N)cc5)cc3-c3nccn3-4)C(=O)[C@H]12 [Example 46] | 6.52 to 6.70 | > 7.30
20 | CC(C)(C1CC(=O)N(c2ccc3c(c2)Cn2cc(-c4ccc(C#N)cc4)cc2-c2nccn2-3)C1)N1CCC1 (centres unmarked) [Example 55, 4-(7-(4-(2-(Azetidin-1-yl)propan-2-yl)-2-oxopyrrolidin-1-yl)-9H-benzo[e]imidazo[2,1-c]pyrrolo[1,2-a][1,4]diazepin-12-yl)benzonitrile] | > 7.30 | > 7.30
21 | CN1CCC(NC(=O)c2ccc3c(c2)Cn2cc(-c4ccc(C#N)cc4)cc2-c2nccn2-3)C1 (centres unmarked) [Example 105] | 6.00 to 6.30 | > 7.30
22 | CC1(C)CCN1C[C@@H]1CN(c2ccc3c(c2)Cn2cc(-c4ccc(C#N)cc4)cc2-c2nccn2-3)C(=O)O1 [Example 6, (R)-4-(7-(5-((2,2-Dimethylazetidin-1-yl)methyl)-2-oxooxazolidin-3-yl)-9H-benzo[e]imidazo[2,1-c]pyrrolo[1,2-a][1,4]diazepin-12-yl)benzonitrile] | > 7.30 | > 7.30
